According to BindingDB's records for doi:10.1021/jm070299x (Bristol Myers Squibb, 2007):

The molecules below were run against Inosine-5'-monophosphate dehydrogenase 2 (Homo sapiens, UniProt P12268) (assay: IMPDH2 Enzyme Inhibition and Human T-Lymphoblast (CEM) Proliferation Inhibition Assays). Details: pH 8; 25 °C.
Protocol: Inhibition assays were performed using recombinant human IMPDH type 2 and varying concentrations of inhibitor. The production of NADH was monitored by following changes in absorbance at 340 nm. […] The in vivo activities of compounds were also evaluated the inhibition of T-cell proliferation in CEM lymphoblast cells. The EC50/IC50 values were calculated using a four-parameter logistic plot.

Row | SMILES | IC50 [nM]
1 | CC(C)(NC(=O)c1cc2[nH]c3ccccc3c(=O)c2cc1F)c1ccccc1 [2-fluoro-9-oxo-N-(2-phenylpropan-2-yl)-9,10-dihydroacridine-3-carboxamide] | 830
2 | CC(C)(NC(=O)c1cc2[nH]c3ccccc3c(=O)c2cc1F)c1cnc2c(c1)OCCN2 [2-fluoro-9-oxo-N-(2-{2H,3H,4H-pyrido[3,2-b][1,4]oxazin-7-yl}propan-2-yl)-9,10-dihydroacridine-3-carboxamide] | 920
3 | Cc1ccc(C(C)(C)NC(=O)c2cc3[nH]c4ccccc4c(=O)c3cc2F)cn1 [2-fluoro-N-[2-(6-methylpyridin-3-yl)propan-2-yl]-9-oxo-9,10-dihydroacridine-3-carboxamide] | 750
4 | COc1cc(C(C)(C)NC(=O)c2cc3[nH]c4ccccc4c(=O)c3cc2F)cnc1N1CCOCC1 [2-fluoro-N-{2-[5-methoxy-6-(morpholin-4-yl)pyridin-3-yl]propan-2-yl}-9-oxo-9,10-dihydroacridine-3-carboxamide] | 810
5 | CC(C)(NC(=O)c1cc2[nH]c3ccccc3c(=O)c2cc1F)c1ccc(N2CCOCC2)nc1 [2-fluoro-N-{2-[6-(morpholin-4-yl)pyridin-3-yl]propan-2-yl}-9-oxo-9,10-dihydroacridine-3-carboxamide] | 660
6 | CC(C)(NC(=O)c1ccc2c(=O)c3ccccc3[nH]c2c1)c1ccccn1 [9-oxo-N-[2-(pyridin-2-yl)propan-2-yl]-9,10-dihydroacridine-3-carboxamide] | 2200
7 | CC(C)(NC(=O)c1ccc2c(=O)c3ccccc3[nH]c2c1)c1cccnc1 [9-oxo-N-[2-(pyridin-3-yl)propan-2-yl]-9,10-dihydroacridine-3-carboxamide] | 2200
8 | CCN1CCN(c2ccc(C(C)(C)NC(=O)c3cc4[nH]c5ccccc5c(=O)c4cc3F)cn2)CC1 [Acridone-Based Inhibitor, 4m] | 770
9 | CC(C)(C)NC(=O)c1ccc2c(=O)c3ccccc3[nH]c2c1 [N-tert-butyl-9-oxo-9,10-dihydroacridine-3-carboxamide] | 3300
10 | CN(C)c1ccc(C(C)(C)NC(=O)c2cc3[nH]c4ccccc4c(=O)c3cc2F)cn1 [N-{2-[6-(dimethylamino)pyridin-3-yl]propan-2-yl}-2-fluoro-9-oxo-9,10-dihydroacridine-3-carboxamide] | 850
11 | CCOC(=O)c1ccc2c(=O)c3ccccc3[nH]c2c1 [ethyl 9-oxo-9,10-dihydroacridine-3-carboxylate] | > 10000

Continued by falling IC50, values first:

Row | IC50 [nM] | SMILES
12 | 2300 | CC(C)(NC(=O)c1ccc2c(=O)c3ccccc3[nH]c2c1)c1ccncc1 [9-oxo-N-[2-(pyridin-4-yl)propan-2-yl]-9,10-dihydroacridine-3-carboxamide]
13 | 2100 | CC(C)(NC(=O)c1ccc2c(=O)c3ccccc3[nH]c2c1)c1ccccc1 [9-oxo-N-(2-phenylpropan-2-yl)-9,10-dihydroacridine-3-carboxamide]
14 | 1000 | CC(C)(NC(=O)c1cc2[nH]c3ccccc3c(=O)c2cc1F)c1ccccn1 [2-fluoro-9-oxo-N-[2-(pyridin-2-yl)propan-2-yl]-9,10-dihydroacridine-3-carboxamide]
15 | 870 | Cc1cc(C(C)(C)NC(=O)c2cc3[nH]c4ccccc4c(=O)c3cc2F)cnc1N1CCOCC1 [2-fluoro-N-{2-[5-methyl-6-(morpholin-4-yl)pyridin-3-yl]propan-2-yl}-9-oxo-9,10-dihydroacridine-3-carboxamide]
16 | 660 | CN(C)S(=O)(=O)c1ccc(C(C)(C)NC(=O)c2cc3[nH]c4ccccc4c(=O)c3cc2F)cc1 [N-{2-[4-(dimethylsulfamoyl)phenyl]propan-2-yl}-2-fluoro-9-oxo-9,10-dihydroacridine-3-carboxamide]
17 | 640 | CN(C)c1cc(C(C)(C)NC(=O)c2cc3[nH]c4ccccc4c(=O)c3cc2F)ccn1 [N-{2-[2-(dimethylamino)pyridin-4-yl]propan-2-yl}-2-fluoro-9-oxo-9,10-dihydroacridine-3-carboxamide]
18 | 580 | CC(C)(NC(=O)c1cc2[nH]c3ccccc3c(=O)c2cc1F)c1cccc(S(C)(=O)=O)c1 [2-fluoro-N-[2-(3-methanesulfonylphenyl)propan-2-yl]-9-oxo-9,10-dihydroacridine-3-carboxamide]
19 | 560 | CN(C)CCOc1ccc(C(C)(C)NC(=O)c2cc3[nH]c4ccccc4c(=O)c3cc2F)cc1 [N-(2-{4-[2-(dimethylamino)ethoxy]phenyl}propan-2-yl)-2-fluoro-9-oxo-9,10-dihydroacridine-3-carboxamide]
20 | 480 | CC(C)(NC(=O)c1cc2[nH]c3ccccc3c(=O)c2cc1F)c1ccc(S(C)(=O)=O)cc1 [2-fluoro-N-[2-(4-methanesulfonylphenyl)propan-2-yl]-9-oxo-9,10-dihydroacridine-3-carboxamide]
21 | 420 | CC(C)(NC(=O)c1cc2[nH]c3ccccc3c(=O)c2cc1F)c1cccnc1 [2-fluoro-9-oxo-N-[2-(pyridin-3-yl)propan-2-yl]-9,10-dihydroacridine-3-carboxamide]
22 | 380 | CN(C)S(=O)(=O)c1cccc(C(C)(C)NC(=O)c2cc3[nH]c4ccccc4c(=O)c3cc2F)c1 [N-{2-[3-(dimethylsulfamoyl)phenyl]propan-2-yl}-2-fluoro-9-oxo-9,10-dihydroacridine-3-carboxamide]

Same assay, conditions: pH 8; 25 °C; read-out: IC50

Row | IC50 [nM] | SMILES
23 | 59 | CCOC(=O)c1ccc2c(=O)c3ccccc3[nH]c2c1 [ethyl 9-oxo-9,10-dihydroacridine-3-carboxylate]
